Data on four compounds can be found in patent publication US11053230B2, “3-hydroxy-imidazolidin-4-one compounds as inhibitors of indoleamine 2,3-dioxygenase” (Netherlands Translational Research Center B.V., priority 2017, dated 2021).

As a reminder, the IC50 is the concentration at which inhibition is half-maximal.

The subject of data set [1] is IDO1 expressed in mouse tumor cells. Conditions: pre-immunized mice; cited from earlier work.
In a further data set the test system is Leishmania major. Conditions: in vivo; cited from earlier work.
Data set [2] deals with melanoma and glioblastoma. The following applies: mouse tumor models for melanoma and glioblastoma; cited from earlier work.
The test system of the next data set is influenza virus. The following applies: influenza virus-infected mice; cited from earlier work.
The subject of the next data set is lung carcinoma. The following applies: syngeneic mouse lung carcinoma model and transgenic mouse model; cited from earlier work.
The next data set addresses T1, IDO1 (Homo sapiens, UniProt P14902).
T1 construct: Recombinant full-length IDO1 (Seegers, N., et al.) and all other assay components were diluted in IDO1 reaction buffer; made in house
The experiment in a line: Biochemical IDO1 assay (NFK GreenScreen). The following applies: NFK GreenScreen; 25 nM IDO1, 100 μM L-tryptophan; read-out: IC50, inhibitory potency on IDO1. A digest of the protocol:
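Recombinant full-length IDO1 in 50 mM NaH2PO4 pH 7.0 with 0.05% Tween-20 and 1% glycerol converted 100 μM L-tryptophan (final) over 60 min at room temperature with compound, 0.3% DMSO.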

The test system of another data set is melanoma. The following applies: mouse model for melanoma; cited from earlier work.
Data set [3] deals with tryptophan 2,3-dioxygenase (TDO) (Homo sapiens, UniProt P48775). The following applies: biochemical assays; cited from earlier work.
tryptophan 2,3-dioxygenase (TDO), sequence (P48775 whole entry, species assumed): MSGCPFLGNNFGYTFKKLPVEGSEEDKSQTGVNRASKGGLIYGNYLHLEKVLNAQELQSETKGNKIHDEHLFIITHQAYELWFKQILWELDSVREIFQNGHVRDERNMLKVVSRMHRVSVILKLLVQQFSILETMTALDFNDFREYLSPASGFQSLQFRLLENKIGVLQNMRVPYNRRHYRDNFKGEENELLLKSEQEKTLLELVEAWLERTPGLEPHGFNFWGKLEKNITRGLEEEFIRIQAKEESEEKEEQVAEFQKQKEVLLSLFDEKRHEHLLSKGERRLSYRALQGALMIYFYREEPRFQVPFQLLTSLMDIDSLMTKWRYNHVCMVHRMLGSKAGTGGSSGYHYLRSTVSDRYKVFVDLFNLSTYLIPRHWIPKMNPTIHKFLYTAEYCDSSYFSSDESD
The test system of the next data set is colon cancer. Conditions: mouse model for colon cancer; cited from earlier work.
The next data set deals with plasma kynurenine levels. The following applies: phase 1, advanced solid malignancies, all doses; cited from earlier work.
For data set [4] the following is noted: randomized, open-label, phase 2, ovarian cancer patients; cited from earlier work.

T1 sequence (P14902 whole entry): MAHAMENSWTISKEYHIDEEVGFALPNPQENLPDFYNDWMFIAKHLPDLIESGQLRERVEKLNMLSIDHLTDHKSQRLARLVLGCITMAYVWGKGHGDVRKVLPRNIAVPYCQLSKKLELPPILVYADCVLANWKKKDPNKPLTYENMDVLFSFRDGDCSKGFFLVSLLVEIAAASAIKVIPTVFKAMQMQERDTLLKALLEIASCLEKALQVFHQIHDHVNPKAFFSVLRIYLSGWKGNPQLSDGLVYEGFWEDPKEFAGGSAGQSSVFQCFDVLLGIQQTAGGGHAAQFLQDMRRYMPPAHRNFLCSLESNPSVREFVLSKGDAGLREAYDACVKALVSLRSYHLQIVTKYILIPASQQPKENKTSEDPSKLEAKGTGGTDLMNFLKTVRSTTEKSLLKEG

Consider `Cn1cc(C[C@H](N)C(=O)O)c2ccccc21` [Example 1-MT, 1-methyl-L-tryptophan], for which the “reversal of IDO1-mediated prevention of tumor cell rejection” value in [1] is “this effect could be reverted”. For the same compound, the parasite burden result in the data set with Leishmania major was “reduced the parasite burden”. The “efficacy of PD-1 and CTLA4 antibodies in combination” value in data set [2] is given as “increased the efficacy of antibodies”. For the same compound, the “T cell response against the virus” value with influenza virus is reported as “enhanced T cell response against the virus”. Also, in the data set on lung carcinoma, the “efficacy of a cancer vaccine in combination” value is reported as “increased the efficacy of a cancer vaccine”.
As for `O=C1CN(C(=O)c2c(F)ccc(-c3ccc(F)cc3)c2F)C(c2cc(Br)cs2)N1O` (stereo not drawn) [Example 136, 2-(4-Bromo-2-thienyl)-1-[2,6-difluoro-3-(4-fluorophenyl)benzoyl]-3-hydroxy-imidazolidin-4-one], the half-maximal inhibitory concentration (IC50) on IDO1 is at most 1000 nM.
Consider `Nc1nonc1C(=NO)Nc1ccc(F)c(Cl)c1` [compound 51, 4-amino-N-(3-chloro-4-fluorophenyl)-N′-hydroxy-1,2,5-oxadiazole-3-carboximidamide], for which the tumor growth result with melanoma and with colon cancer was “reduction of tumor growth” each time. Further, the “inhibition of TDO activity” value in data set [3] was “inhibit the activity of tryptophan 2,3-dioxygenase (TDO)”.
As to `NS(=O)(=O)NCCNc1nonc1C(=NO)Nc1ccc(F)c(Br)c1` [epacadostat], the tumor growth entry in the data set with colon cancer is on record as “further reduction of tumor growth”. The plasma kynurenine levels result with plasma kynurenine levels is listed as “significant dose-dependent reductions”. Also, the tolerability result in data set [4] is “generally well tolerated”.
